# Source: the supplement of paper PMC10307832
# Experiments:
# Assay in all cases: relative viability (nuclei count vs DMSO), 5 days (fraction); higher = more cells survive
# [1] = compound: CC(C)CCN1c2nc(Nc3cc(F)c(O)c(F)c3)ncc2N(C)C(=O)C1C [BI-D1870]
# Method in brief: (§1)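 Five library-drug doses spaced by √10 were pinned onto vehicle-anchored 1536-well plates of lung cancer cell lines that had been kept overnight at 37 °C. Cells went 5 days without medium change, then were fixed, permeabilised and Hoechst-stained together, imaged at 4× and counted by MetaXpress. Viability is the ratio of treated-well to vehicle-well nuclei, taken as a median over plates. Plates required control CV below 25% and at least one doubling.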
# [2] = compound: O=c1ncccn1[C@@H]1O[C@H](CO)[C@@H](O)[C@H]1O [Zebularine]
# Method in brief: as §1
# [3] = compound: CC(C)CCN1c2nc(Nc3cc(F)c(O)c(F)c3)ncc2N(C)C(=O)C1C [BI-D1870] + COc1cc2c(Oc3ccc(NC(=O)C4(C(=O)Nc5ccc(F)cc5)CC4)cc3F)ccnc2cc1OCCCN1CCOCC1 [Foretinib] (partner 0.25 µM)
# Method in brief: (§2)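 Lung cancer cell lines were pin-tool dosed in 1536-well plates on the day after seeding, with either a lone drug or a fixed anchor-drug dose plus five library-drug doses (not always all listed) in √10 steps. Nuclei were counted on 4× images after 5 days. Relative viability is the ratio of treated-well to vehicle-well nuclei counts, with each value a median of duplicate plates.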
# [4] = compound: CC(C)CCN1c2nc(Nc3cc(F)c(O)c(F)c3)ncc2N(C)C(=O)C1C [BI-D1870] + CS(=O)(=O)CCNCc1ccc(-c2ccc3ncnc(Nc4ccc(OCc5cccc(F)c5)c(Cl)c4)c3c2)o1 [Lapatinib] (partner 2 µM)
# Method in brief: as §2
cell line,measurement,setting,value
UMC-11,relative viability,[1]; 0.04 µM,0.972
same,relative viability,[1]; 0.1265 µM,0.949
same,relative viability,[1]; 0.4 µM,1.04
same,relative viability,[1]; 1.265 µM,1.02
same,relative viability,[1]; 4 µM,0.387
same,relative viability,[2]; 1 µM,1.1
same,relative viability,[2]; 3.162 µM,0.824
same,relative viability,[2]; 10 µM,0.673
same,relative viability,[2]; 31.62 µM,0.653
same,relative viability,[2]; 100 µM,0.422
same,relative viability,[3]; first compound 0.04 µM,1.1
same,relative viability,[3]; first compound 0.1265 µM,0.986
same,relative viability,[3]; first compound 0.4 µM,1.11
same,relative viability,[3]; first compound 1.265 µM,0.897
same,relative viability,[3]; first compound 4 µM,0.198
same,relative viability,[4]; first compound 0.04 µM,1.12
same,relative viability,[4]; first compound 0.1265 µM,0.858
same,relative viability,[4]; first compound 0.4 µM,0.97
same,relative viability,[4]; first compound 1.265 µM,1.08
same,relative viability,[4]; first compound 4 µM,0.637
